Source: PubChem BioAssay AID248 (DTP/NCI, 2004)
“And” between values parts separate entries of the source, which are not always exact repeats. Identical values can stand only once. Inconclusive results and toxic doses are left out. Cut-off read from the data, not from the text of the source: active = T/C of 150% or more; inactive = T/C below 125%.

Test system: L1210 leukemia ip in BDF1 mice, survival T/C
Assay: NCI In Vivo Anticancer Drug Screen. Data for tumor model L1210 Leukemia (intraperitoneal) in B6D2F1 (BDF1) mice
Settings: endpoint: mean survival time, higher = longer survival
Procedure, shortened: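 Read-out is survival time, reported as the treated-group measurement over the vehicle-control measurement.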

[1] = dose: 100.0 mg/kg/injection, schedule: Q01DX009 (ip), vehicle: Klucel (hydroxypropylcellulose) (HPC)
[2] = dose: 100.0 mg/kg/injection, schedule: Q04DX002 (ip), vehicle: Klucel (hydroxypropylcellulose) (HPC)
[3] = dose: 100.0 mg/kg/injection, schedule: Q04DX003 (ip), vehicle: Klucel (hydroxypropylcellulose) (HPC)
[4] = dose: 200.0 mg/kg/injection, schedule: Q01DX009 (ip), vehicle: Klucel (hydroxypropylcellulose) (HPC)
[5] = dose: 200.0 mg/kg/injection, schedule: Q04DX002 (ip), vehicle: Klucel (hydroxypropylcellulose) (HPC)
[6] = dose: 200.0 mg/kg/injection, schedule: Q04DX003 (ip), vehicle: Klucel (hydroxypropylcellulose) (HPC)
[7] = dose: 400.0 mg/kg/injection, schedule: Q01DX009 (ip), vehicle: Klucel (hydroxypropylcellulose) (HPC)
[8] = dose: 400.0 mg/kg/injection, schedule: Q04DX002 (ip), vehicle: Klucel (hydroxypropylcellulose) (HPC)
[9] = dose: 400.0 mg/kg/injection, schedule: Q04DX003 (ip), vehicle: Klucel (hydroxypropylcellulose) (HPC)
[10] = dose: 100.0 mg/kg/injection, schedule: Q04DX003 (ip), vehicle: saline with Tween-80
[11] = dose: 200.0 mg/kg/injection, schedule: Q04DX003 (ip), vehicle: saline with Tween-80
[12] = dose: 100.0 mg/kg/injection, schedule: Q01DX009 (ip), vehicle: saline with Tween-80
[13] = dose: 200.0 mg/kg/injection, schedule: Q01DX009 (ip), vehicle: saline with Tween-80
[14] = dose: 400.0 mg/kg/injection, schedule: Q01DX009 (ip), vehicle: saline with Tween-80
[15] = dose: 50.0 mg/kg/injection, schedule: Q04DX003 (ip), vehicle: saline with Tween-80
[16] = dose: 100.0 mg/kg/injection, schedule: Q01DX001 (ip), vehicle: saline
[17] = dose: 200.0 mg/kg/injection, schedule: Q01DX001 (ip), vehicle: saline
[18] = dose: 400.0 mg/kg/injection, schedule: Q01DX001 (ip), vehicle: saline
[19] = dose: 100.0 mg/kg/injection, schedule: Q01DX001 (ip), vehicle: carboxymethylcellulose (CMC)
[20] = dose: 200.0 mg/kg/injection, schedule: Q01DX001 (ip), vehicle: carboxymethylcellulose (CMC)
[21] = dose: 400.0 mg/kg/injection, schedule: Q01DX001 (ip), vehicle: carboxymethylcellulose (CMC)

Measured: T/C

COc1ccc(NC(=O)NCCN(C)c2ccccc2)cc1
inactive: [1] 93 % of control and 90 % of control | [2] 96 % of control and 101 % of control and 107 % of control | [3] 98 % of control | [4] 97 % of control and 104 % of control | [5] 98 % of control and 100 % of control and 104 % of control | [6] 101 % of control | [7] 100 % of control and 101 % of control | [8] 96 % of control and 101 % of control and 103 % of control | [9] 98 % of control

C=C(C)C#CCN(CCO)C(C)C
inactive: dose: 75.0 mg/kg/injection, schedule: Q01DX001 (ip), vehicle: other 96 % of control | dose: 150.0 mg/kg/injection, schedule: Q01DX001 (ip), vehicle: other 96 % of control

OC(CC1=NNC(=S)NC1)(C(F)(F)F)C(F)(F)F
inactive: [10] 95 % of control | [11] 87 % of control

Cc1cccc(NC(=O)NC(C)C)c1C
inactive: [1] 109 % of control | [3] 102 % of control | [4] 109 % of control | [6] 96 % of control | [7] 102 % of control | [9] 98 % of control

Cc1ccc(CNCC(=O)O)cc1
inactive: dose: 50.0 mg/kg/injection, schedule: Q01DX009 (ip), vehicle: water 102 % of control | dose: 100.0 mg/kg/injection, schedule: Q01DX009 (ip), vehicle: water 98 % of control | dose: 100.0 mg/kg/injection, schedule: Q01DX Z (ip), vehicle: saline 96 % of control | dose: 100.0 mg/kg/injection, schedule: Q04DX003 (ip), vehicle: water 95 % of control | dose: 200.0 mg/kg/injection, schedule: Q01DX009 (ip), vehicle: water 95 % of control | dose: 200.0 mg/kg/injection, schedule: Q01DX Z (ip), vehicle: saline 104 % of control | dose: 200.0 mg/kg/injection, schedule: Q04DX003 (ip), vehicle: water 88 % of control

CCNC(=O)Nc1ccc(C)cc1C
inactive: [1] 94 % of control | [3] 96 % of control | [4] 103 % of control | [6] 96 % of control | [7] 105 % of control | [9] 95 % of control

CCOC(=O)/C=C/Oc1cc(Cl)c(Cl)cc1Cl
inactive: [12] 110 % of control | [13] 92 % of control | [14] 93 % of control

O=C(COC(=O)c1ccccc1)NCCCCc1ccccc1
inactive: dose: 100.0 mg/kg/injection, schedule: Q01DX001 (ip), vehicle: saline with Tween-80 100 % of control | [12] 105 % of control and 91 % of control | dose: 100.0 mg/kg/injection, schedule: Q04DX002 (ip), vehicle: saline with Tween-80 96 % of control | [10] 94 % of control | dose: 200.0 mg/kg/injection, schedule: Q01DX001 (ip), vehicle: saline with Tween-80 89 % of control | [13] 95 % of control and 100 % of control | dose: 200.0 mg/kg/injection, schedule: Q04DX002 (ip), vehicle: saline with Tween-80 99 % of control and 91 % of control | [11] 92 % of control | [14] 94 % of control and 95 % of control | dose: 400.0 mg/kg/injection, schedule: Q04DX002 (ip), vehicle: saline with Tween-80 93 % of control and 86 % of control

CC(=O)OCC#CCOC(C)=O
inactive: [15] 100 % of control | [10] 97 % of control | [11] 97 % of control

CNC(C)=O
inactive: [16] 100 % of control | dose: 100.0 mg/kg/injection, schedule: Q01DX009 (ip), vehicle: saline 110 % of control | dose: 125.0 mg/kg/injection, schedule: Q01DX Z (ip), vehicle: carboxymethylcellulose (CMC) 86 % of control | [17] 97 % of control | dose: 200.0 mg/kg/injection, schedule: Q01DX009 (ip), vehicle: saline 107 % of control | [18] 95 % of control | dose: 400.0 mg/kg/injection, schedule: Q01DX009 (ip), vehicle: saline 115 % of control | dose: 500.0 mg/kg/injection, schedule: Q01DX Z (ip), vehicle: carboxymethylcellulose (CMC) 86 % of control | dose: 1000.0 mg/kg/injection, schedule: Q01DX Z (ip), vehicle: carboxymethylcellulose (CMC) 110 % of control

COc1ccc([N+](=O)[O-])cc1C(=O)O
inactive: dose: 75.0 mg/kg/injection, schedule: Q01DX001 (ip), vehicle: saline 104 % of control | dose: 75.0 mg/kg/injection, schedule: Q04DX003 (ip), vehicle: acetone 100 % of control | dose: 150.0 mg/kg/injection, schedule: Q01DX001 (ip), vehicle: saline 95 % of control | dose: 150.0 mg/kg/injection, schedule: Q04DX003 (ip), vehicle: acetone 89 % of control | dose: 300.0 mg/kg/injection, schedule: Q01DX001 (ip), vehicle: saline 104 % of control | dose: 300.0 mg/kg/injection, schedule: Q04DX003 (ip), vehicle: acetone 93 % of control

BrC(Br)c1ccc2ccccc2n1
inactive: [1] 89 % of control | [3] 95 % of control | [4] 94 % of control | [6] 95 % of control | [7] 94 % of control | [9] 97 % of control

CCOC(=O)c1c(-c2cc(OC)c(OC)c(OC)c2)csc1NC(=O)c1ccccc1
inactive: [15] 89 % of control | [10] 105 % of control | [11] 90 % of control | dose: 400.0 mg/kg/injection, schedule: Q04DX003 (ip), vehicle: saline with Tween-80 90 % of control

COc1ccc(Cl)cc1CC=O
inactive: [19] 118 % of control | [20] 118 % of control | [21] 114 % of control

Cc1n(C(C)C)c2c([n+]1C)C(=O)c1ccccc1C2=O
inactive: dose: 0.39 mg/kg/injection, schedule: Q01DX009 (ip), vehicle: saline 106 % of control | dose: 0.78 mg/kg/injection, schedule: Q01DX009 (ip), vehicle: saline 98 % of control | dose: 1.56 mg/kg/injection, schedule: Q01DX009 (ip), vehicle: saline 101 % of control | dose: 1.56 mg/kg/injection, schedule: Q04DX003 (ip), vehicle: acetone 95 % of control | dose: 2.33 mg/kg/injection, schedule: Q01DX009 (ip), vehicle: acetone 88 % of control | dose: 3.54 mg/kg/injection, schedule: Q01DX009 (ip), vehicle: acetone 92 % of control

COC12C(CC3C4CC=C5CC(OC(C)=O)CCC5(C)C4CCC31C)C(c1ccccc1)=NN2c1ccccc1 (configuration not stated)
inactive: dose: 12.5 mg/kg/injection, schedule: Q04DX002 (ip), vehicle: Klucel (hydroxypropylcellulose) (HPC) 101 % of control | dose: 25.0 mg/kg/injection, schedule: Q04DX002 (ip), vehicle: Klucel (hydroxypropylcellulose) (HPC) 104 % of control | dose: 50.0 mg/kg/injection, schedule: Q04DX002 (ip), vehicle: Klucel (hydroxypropylcellulose) (HPC) 101 % of control

c1ccc(-c2c3ccccc3c(-c3ccccc3)c3cc4ccccc4cc23)cc1
inactive: [2] 95 % of control | [5] 98 % of control | [8] 92 % of control

CC[n+]1ccc(-c2ccc(S(=O)(=O)[O-])cc2)o1
inactive: dose: 50.0 mg/kg/injection, schedule: Q04DX003 (ip), vehicle: saline 108 % of control | [19] 96 % of control | [16] 105 % of control | dose: 100.0 mg/kg/injection, schedule: Q04DX003 (ip), vehicle: saline 93 % of control | [20] 96 % of control | [17] 105 % of control | dose: 200.0 mg/kg/injection, schedule: Q04DX003 (ip), vehicle: saline 105 % of control | [21] 100 % of control | [18] 105 % of control
